Patent US20120165319A1, “INHIBITORS OF INTERLEUKIN-1 BETA CONVERTING ENZYME” (VERTEX PHARMACEUTICALS INCORPORATED, priority 1995, published 2012)

Key:
[1] = test system: IFN-γ, human PBMC; experiment: Human PBMC assay (Example 27): IFN-γ production; type: cell-based; details: LPS-stimulated human PBMCs (FIG. 5); read-out: IC50, decrease of IFN-γ production
Protocol: (§1) Since the processing and secretion of biologically active IGIF is mediated by ICE, we compared the activity of a reversible ICE inhibitor (Ac-YVAD-CHO) on IL-1β and IFN-γ production in a peripheral blood mononuclear cell (PBMC) assay (Examples 27).
(§2) Human buffy coat cells were obtained from blood donors and peripheral blood mononuclear cells (PBMC) were isolated by centrifugation in LeukoPrep tubes (Becton-Dickinson, Lincoln Park, N.J.). PBMC were added (3×10^6/well) to 24 well Corning tissue culture plates and after 1 hr incubation at 37° C., non-adherent cells were removed by gently washing. Adherent mononuclear cells were stimulated with LPS (1 μg/ml) with or without ICE inhibitor in 2 ml RPMI-1640-10% FBS. After 16-18 hr incubation at 37° C., IGIF and IFN-γ were quantitated in culture supernatants by ELISA.

[2] = test system: IL-1β, human PBMC; experiment: Human PBMC assay (Example 27): IL-1β production; type: cell-based; details: LPS-stimulated human PBMCs (FIG. 5); read-out: IC50, decrease of IL-1β production
Protocol: as §1, §2

[3] = target: T1, ICE (Homo sapiens, UniProt P29466); experiment: Enzyme assay with UV-visible substrate (visible ICE assay, Succinyl-Tyr-Val-Ala-Asp-pNitroanilide); type: biochemical; details: Table 5
T1 sequence (P29466 120-297 limits assumed): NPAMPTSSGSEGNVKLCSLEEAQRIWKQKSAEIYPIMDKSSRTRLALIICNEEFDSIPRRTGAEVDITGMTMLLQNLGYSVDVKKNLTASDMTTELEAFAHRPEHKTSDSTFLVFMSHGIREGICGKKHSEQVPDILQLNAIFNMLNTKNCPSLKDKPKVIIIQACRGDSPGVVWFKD
T1 sequence (P29466 317-404 limits assumed): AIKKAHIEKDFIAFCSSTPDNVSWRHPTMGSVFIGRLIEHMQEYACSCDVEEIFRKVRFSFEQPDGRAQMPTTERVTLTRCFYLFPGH
How it was run: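 ICE preincubated with inhibitor in DMSO for 15 min at room temperature, then Suc-Tyr-Val-Ala-Asp-pNA added. pNA release read at 405-603 nm for 20 min at 37 °C, rate from linear fit in mOD/min. Ki and inhibition mode from fits of rates at varying inhibitor concentrations to standard kinetic equations.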

[4] = test system: IL-1β, human peripheral blood mononuclear cells (PBMC); experiment: PBMC cell assay: IL-1β assay with human PBMC or enriched adherent mononuclear cells, LPS-stimulated; type: cell-based; details: Homo sapiens, PBMC, * = values obtained upon reassay
How it was run: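 Buffy-coat human PBMC at 6×10^6 cells/ml, or adherent monocytes enriched by 1 h adherence (2.5−3.0×10^5 cells/well), are given 5–6 compound dilutions bracketing the ICE Ki (final DMSO 0.1%) plus LPS at a final 5 ng/ml. They are incubated 16–18 hr at 37 °C, 5% CO2, and supernatant mature IL-1β is measured by ELISA, with duplicate cultures and duplicate ELISAs.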

[5] = test system: IL-1β production, LPS-challenged mice; experiment: In vivo acute assay for efficacy as anti-inflammatory agent: LPS-induced IL-1β production in mice; design: species or system mouse; details: LPS challenged mice, PO, 50 mg/kg; * = values obtained in subsequent assays (Table 4)
How it was run: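 CD1 mice (n=6) were challenged with LPS 20 mg/kg IP and given compound IP in olive oil:DMSO:ethanol (90:5:5) 1 h after LPS, or at the time of challenge for some analogs. Blood was taken 7 h after LPS and serum IL-1β was measured by ELISA. Oral gavage at 50 mg/kg was also tested.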

[6] = Measurement of blood levels of prodrugs of 214e after p.o. dosing in mice; type: in vivo, mouse; details: p.o. 50 mg/kg in 0.5% carboxymethylcellulose, blood at 1 and 7 hours
Protocol: Measurement of Blood Levels of Prodrugs of 214e
Mice were administered a p.o. dose of compounds 302 and 304a (50 mg/kg) prepared in 0.5% carboxymethylcellulose. Blood samples were collected at 1 and 7 hours after dosing. Serum was extracted by precipitation with an equal volume of acetonitrile containing 2% formic acid followed by centrifugation. The supernatant was analyzed by liquid chromatography-mass spectrometry (ESI-MS) with a detection level of 0.03 to 3 μg/ml.

Work on “AcYVAD-CHO [Ac-YVAD-CHO, reference compound]” yielded an IC50 [1] of 2500 nM and an IC50 [2] of 2500 nM.

With `COC1OC(=O)C[C@@H]1NC(=O)[C@@H]1CCCN2C(=O)CC[C@H](NC(=O)c3ccccc3)C(=O)N12` (stereo partly drawn) [Compound 304a, [1S,9S (2RS,3S)]9-Benzoylamino-6,10-dioxo-1,2,3,4,7,8,9,10-octahydro-N-(2-methoxy-5-oxo-tetrahydro-furan-3-yl)-6H-pyridazino[1,2-a][1,2]diazapine-1-carboxamide] the Ki [3] was 200 nM, the IC50 [4] was 1400 nM and the “Inhibition of IL-1β Production, compound administered 0 hr relative to LPS challenge” value [5] was 68%. For the same molecule, the “Inhibition of IL-1β Production, compound administered +1 hr relative to LPS challenge” value [5] was 37%, the “Inhibition of IL-1β Production, compound administered −1 hr relative to LPS challenge” value [5] was 33% and the “Inhibition of IL-1β Production, compound administered −2 hr relative to LPS challenge” value [5] was 30%. The “blood levels when administered orally (in words)” value [6] was “detectable blood levels”.
